According to paper PMC10295546, “Synthesis, Cytotoxicity and Molecular Docking of New Hybrid Compounds by Combination of Curcumin with Oleanolic Acid” (Biomedicines, 2023):

Legend:
Format in all cases: cell-based, human
[1] = tested on: MCF-12A cells; test: MTT cell viability assay, non-tumorigenic MCF-12A
Experimental: (§1) The assay was performed as previously described.

[2] = tested on: MCF7 cells; test: MTT cell viability assay, MCF7; settings: for IC50: MTT
Experimental: as §1

[3] = tested on: HeLaWT, HT-29, MCF7 and MCF-12A cells; test: MTT cell viability assay, statement for all studied cells; settings: for IC50: Homo sapiens, all studied cells, applied concentration range, time not specified
Experimental: as §1

[4] = tested on: HeLaWT cells; test: MTT cell viability assay, HeLaWT
Experimental: as §1

[5] = tested on: HT-29 cells; test: MTT cell viability assay, HT-29; settings: for IC50: MTT
Experimental: as §1

[6] = tested on: HT-29 cells; test: TUNEL assay, HT-29; settings: HT-29, 1 × IC50, 24 h, non-statistically significant
Experimental: (§2) To determine the percentage of apoptotic cells, the TUNEL assay was performed as described elsewhere. TUNEL staining for the detection and quantification of apoptosis at the single-cell level was performed using an in situ cell death detection kit (Roche, Mannheim, Germany) according to the manufacturer’s protocol. Briefly, HT-29, HeLaWT and MCF7 cells (5 × 10^5/well) were seeded into 6-well plates and cultured overnight before exposure to different concentrations of tested compounds for 24 h. For TUNEL labeling, cells were harvested, fixed, permeabilized and labeled with the TUNEL reaction mixture (enzyme and label solutions) for 1 h at 37 °C in the dark. Negative controls were created by omitting the terminal deoxynucleotidyl enzyme and adding the same volume of the label solution. The cells were analyzed using a FACScan flow cytometer (Becton–Dickinson, Franklin Lakes, NJ, USA).

[7] = tested on: HeLaWT cells; test: TUNEL assay, HeLaWT
Experimental: as §2

[8] = tested on: MCF7 cells; test: Cell cycle analysis (propidium iodide flow cytometry), MCF7; settings: MCF7, both applied concentrations (0.5 × IC50 and 1 × IC50), 24 h
Experimental: (§3) To analyze the influence of the chosen compounds on the cell cycle, a flow cytometry analysis using propidium iodide was performed as previously described. The HT-29, MCF7 and HeLaWT cells (3 × 10^5 cells) were incubated overnight to reach sedimentation and then were treated with 0.5 and 1 × IC50 of KS1, KS2, KS5, KS6, KS7 and KS8, or Doxorubicin (positive control). Cell cycle analysis was performed after incubation for 24 h. Then, cells were harvested, washed twice with phosphate-buffered saline (PBS), and incubated with a solution of 1% saponin, 50 µg/mL propidium iodide and 10 mg/mL of RNase A (Sigma-Aldrich, Schnelldorf, Germany) in PBS for 1 h at 37 °C. DNA content was analyzed by flow cytometry at the […] wavelength of 488 nm using FACScan (Becton–Dickinson, Franklin Lakes, NJ, USA). The relative proportions of cells in the G1/G0, S and G2/M phases of the cell cycle were determined from the obtained data. Three separate experiments in triplicates were performed for each cell line.

[9] = tested on: HT-29 cells; test: Cell cycle analysis (propidium iodide flow cytometry), HT-29
Experimental: as §3

[10] = tested on: HeLaWT cells; test: Cell cycle analysis (propidium iodide flow cytometry), HeLaWT
Experimental: as §3

[11] = Homo sapiens, MCF-12A, 24 h, MTT
[12] = Homo sapiens, MCF-12A, 48 h, MTT
[13] = Homo sapiens, MCF-12A, 72 h, MTT
[14] = Homo sapiens, non-cancerous MCF-12A cells, applied concentration range, time not specified

## COc1cc(/C=C/C(=O)/C=C(O)/C=C/c2ccc(OC(=O)CCC(=O)OC3CCC4(C)C(CCC5(C)C4CC=C4C6CC(C)(C)CCC6(C(=O)O)CCC45C)C3(C)C)c(OC)c2)ccc1O (stereo not shown) [KS4, Curcumin mono-oleanoyl hydrogen succinate]
[1]; [11]
  IC50: > 100 µM
[1]; [12]
  IC50: > 100 µM
[1]; [13]
  IC50: > 100 µM
[1]; [14]
  IC50: > 100 µM
[2]; Homo sapiens, MCF7, 24 h
  IC50: > 100 µM
[2]; Homo sapiens, MCF7, 48 h
  IC50: > 100 µM
[2]; Homo sapiens, MCF7, 72 h
  IC50: > 100 µM
[3]
  IC50: > 100 µM
[4]; Homo sapiens, 24 h
  IC50: > 100 µM
[4]; Homo sapiens, 48 h
  IC50: > 100 µM
[4]; Homo sapiens, 72 h
  IC50: > 100 µM
[5]; Homo sapiens, HT-29, 24 h
  IC50: > 100 µM
[5]; Homo sapiens, HT-29, 48 h
  IC50: > 100 µM
[5]; Homo sapiens, HT-29, 72 h
  IC50: > 100 µM

## COC(=O)C12CCC(C)(C)CC1C1=CCC3C4(C)CCC(OC(=O)CCC(=O)Oc5ccc(/C=C/c6cc(/C=C/c7ccc(O)c(OC)c7)n[nH]6)cc5OC)C(C)(C)C4CCC3(C)C1(C)CC2 (stereo not shown) [KS8, Curcumin pyrazole mono-oleanoyl hydrogen succinate methyl ester]
[1]; [11]
  IC50: 62.7 ± 3.1 µM
[1]; [12]
  IC50: 43.4 ± 2.2 µM
[1]; [13]
  IC50: 42.3 ± 2.5 µM
[2]; Homo sapiens, MCF7, 24 h
  IC50: 44.3 ± 2.2 µM
[2]; Homo sapiens, MCF7, 48 h
  IC50: 33.2 ± 1.7 µM
[2]; Homo sapiens, MCF7, 72 h
  IC50: 29.9 ± 1.5 µM
[4]; Homo sapiens, 24 h
  IC50: 53.4 ± 2.7 µM
[4]; Homo sapiens, 48 h
  IC50: 36.9 ± 1.8 µM
[4]; Homo sapiens, 72 h
  IC50: 25.6 ± 1.2 µM
[5]; Homo sapiens, HT-29, 24 h
  IC50: 20.6 ± 1 µM
[5]; Homo sapiens, HT-29, 48 h
  IC50: 17.9 ± 0.9 µM
[5]; Homo sapiens, HT-29, 72 h
  IC50: 17.3 ± 0.9 µM

## COc1cc(/C=C/C(=O)CC(=O)/C=C/c2ccc(O)c(OC)c2)ccc1O [KS2, curcumin]
[1]; [11]
  IC50: 75.6 ± 2.5 µM
[1]; [12]
  IC50: 46.4 ± 2 µM
[1]; [13]
  IC50: 42 ± 1.6 µM
[6]
  increase of apoptosis (TUNEL): 10%
[7]; 0.5 × IC50, 24 h
  number of apoptotic cells (TUNEL): 30%
[7]; 1 × IC50, 24 h
  number of apoptotic cells (TUNEL): 80%
[2]; Homo sapiens, MCF7, 24 h
  IC50: 15.6 ± 0.8 µM
[2]; Homo sapiens, MCF7, 48 h
  IC50: 14.6 ± 0.6 µM
[2]; Homo sapiens, MCF7, 72 h
  IC50: 7.5 ± 0.4 µM
[8]
  effect on cell cycle phases: a decrease in the G0/G1 phase, and an increase in the G2/M phase
[9]; HT-29, 24 h, in comparison to control untreated cells
  increase of apoptotic cells (cell cycle analysis): 7%
[9]; HT-29, both applied concentrations (0.5 × IC50 and 1 × IC50), 24 h
  effect on cell cycle phases: a decrease in the G0/G1 phase, and an increase in the G2/M phase
[4]; Homo sapiens, 24 h
  IC50: 57.2 ± 2.2 µM
[4]; Homo sapiens, 48 h
  IC50: 28.7 ± 1.1 µM
[4]; Homo sapiens, 72 h
  IC50: 16.2 ± 0.65 µM
[5]; Homo sapiens, HT-29, 24 h
  IC50: 25.2 ± 1.3 µM
[5]; Homo sapiens, HT-29, 48 h
  IC50: 13.9 ± 0.7 µM
[5]; Homo sapiens, HT-29, 72 h
  IC50: 11.1 ± 0.6 µM
[10]; 0.5 × IC50, 24 h
  effect on cell cycle phases: a decrease in the G0/G1 phase, and an increase in the G2/M phase
[10]; 1 × IC50, 24 h
  effect on cell cycle phases: a decrease in the number of cells in the G0/G1 phase
  increase of apoptotic cells (cell cycle analysis): up to 10%

## CC1(C)CCC2(C(=O)O)CCC3(C)C(=CCC4C5(C)CCC(OC(=O)CCC(=O)O)C(C)(C)C5CCC43C)C2C1 (stereo not drawn) [KS1, 4-{[(3 β )-28-hydroksy-28-oxoolean-12-en-3-yl]oxy}-4-oxobutanoic acid]
[1]; MCF-12A, 24 h, MTT
  IC50: > 100 µM
[1]; MCF-12A, 48 h, MTT
  IC50: 47.7 ± 2.1 µM
[1]; MCF-12A, 72 h, MTT
  IC50: 42.1 ± 1.9 µM
[2]; MCF7, 24 h
  IC50: > 100 µM
[2]; MCF7, 48 h
  IC50: 34.4 ± 2.2 µM
[2]; MCF7, 72 h
  IC50: 22.5 ± 0.9 µM
[2]; MCF7, MTT, summary of Table 1
  cytotoxic activity (in words): quite active
[4]; 24 h
  IC50: > 100 µM
[4]; 48 h
  IC50: > 100 µM
[4]; 72 h
  IC50: > 100 µM
[4]; summary of Table 1
  cytotoxic activity (in words): inactive
[5]; HT-29, 24 h
  IC50: > 100 µM
[5]; HT-29, 48 h
  IC50: > 100 µM
[5]; HT-29, 72 h
  IC50: > 100 µM
[5]; HT-29, MTT, summary of Table 1
  cytotoxic activity (in words): inactive

## COC(=O)C12CCC(C)(C)CC1C1=CCC3C4(C)CCC(OC(=O)CCC(=O)Oc5ccc(/C=C/C(O)=C/C(=O)/C=C/c6ccc(O)c(OC)c6)cc5OC)C(C)(C)C4CCC3(C)C1(C)CC2 (stereo not shown) [KS3, Curcumin mono-oleanoyl hydrogen succinate methyl ester]
[1]; [11]
  IC50: > 100 µM
[1]; [12]
  IC50: > 100 µM
[1]; [13]
  IC50: > 100 µM
[1]; [14]
  IC50: > 100 µM
[2]; Homo sapiens, MCF7, 24 h
  IC50: > 100 µM
[2]; Homo sapiens, MCF7, 48 h
  IC50: > 100 µM
[2]; Homo sapiens, MCF7, 72 h
  IC50: > 100 µM
[3]
  IC50: > 100 µM
[4]; Homo sapiens, 24 h
  IC50: > 100 µM
[4]; Homo sapiens, 48 h
  IC50: > 100 µM
[4]; Homo sapiens, 72 h
  IC50: > 100 µM
[5]; Homo sapiens, HT-29, 24 h
  IC50: > 100 µM
[5]; Homo sapiens, HT-29, 48 h
  IC50: > 100 µM
[5]; Homo sapiens, HT-29, 72 h
  IC50: > 100 µM

## COc1cc(/C=C/c2cc(/C=C/c3ccc(OC(=O)CCC(=O)OC4CCC5(C)C(CCC6(C)C5CC=C5C7CC(C)(C)CCC7(C(=O)O)CCC56C)C4(C)C)c(OC)c3)on2)ccc1O (stereo not shown) [KS5, Curcumin isoxazole mono-oleanoyl hydrogen succinate]
[1]; [11]
  IC50: 83.2 ± 3.1 µM
[1]; [12]
  IC50: 68.7 ± 2.4 µM
[1]; [13]
  IC50: 49.9 ± 1.6 µM
[2]; Homo sapiens, MCF7, 24 h
  IC50: 80.8 ± 4 µM
[2]; Homo sapiens, MCF7, 48 h
  IC50: 45.6 ± 2.3 µM
[2]; Homo sapiens, MCF7, 72 h
  IC50: 37.8 ± 1.9 µM
[4]; Homo sapiens, 24 h
  IC50: 70.1 ± 3.5 µM
[4]; Homo sapiens, 48 h
  IC50: 51.2 ± 2.5 µM
[4]; Homo sapiens, 72 h
  IC50: 27.3 ± 1.4 µM
[5]; Homo sapiens, HT-29, 24 h
  IC50: 29 ± 1.4 µM
[5]; Homo sapiens, HT-29, 48 h
  IC50: 23.2 ± 1.2 µM
[5]; Homo sapiens, HT-29, 72 h
  IC50: 21.5 ± 1.1 µM

## COc1cc(/C=C/c2cc(/C=C/c3ccc(OC(=O)CCC(=O)OC4CCC5(C)C(CCC6(C)C5CC=C5C7CC(C)(C)CCC7(C(=O)O)CCC56C)C4(C)C)c(OC)c3)[nH]n2)ccc1O (stereo not shown) [KS6, Curcumin pyrazole mono-oleanoyl hydrogen succinate]
[1]; [11]
  IC50: > 100 µM
[1]; [12]
  IC50: 54.3 ± 2.7 µM
[1]; [13]
  IC50: 44.6 ± 1.9 µM
[2]; Homo sapiens, MCF7, 24 h
  IC50: 69.1 ± 3.4 µM
[2]; Homo sapiens, MCF7, 48 h
  IC50: 25.9 ± 1.3 µM
[2]; Homo sapiens, MCF7, 72 h
  IC50: 20.2 ± 1 µM
[4]; Homo sapiens, 24 h
  IC50: 77.1 ± 3.8 µM
[4]; Homo sapiens, 48 h
  IC50: 45 ± 2.3 µM
[4]; Homo sapiens, 72 h
  IC50: 25.9 ± 1.3 µM
[5]; Homo sapiens, HT-29, 24 h
  IC50: 94.4 ± 4.7 µM
[5]; Homo sapiens, HT-29, 48 h
  IC50: 51.9 ± 2.6 µM
[5]; Homo sapiens, HT-29, 72 h
  IC50: 26 ± 1.3 µM

## COC(=O)C12CCC(C)(C)CC1C1=CCC3C4(C)CCC(OC(=O)CCC(=O)Oc5ccc(/C=C/c6cc(/C=C/c7ccc(O)c(OC)c7)no6)cc5OC)C(C)(C)C4CCC3(C)C1(C)CC2 (stereo not shown) [KS7, Curcumin isoxazole mono-oleanoyl hydrogen succinate methyl ester]
[1]; [11]
  IC50: > 100 µM
[1]; [12]
  IC50: > 100 µM
[1]; [13]
  IC50: > 100 µM
[1]; [14]
  IC50: > 100 µM
[2]; Homo sapiens, MCF7, 24 h
  IC50: > 100 µM
[2]; Homo sapiens, MCF7, 48 h
  IC50: > 100 µM
[2]; Homo sapiens, MCF7, 72 h
  IC50: > 100 µM
[3]
  IC50: > 100 µM
[3]; all cell lines, MTT, summary of Table 1
  cytotoxic activity (in words): inactive
[4]; Homo sapiens, 24 h
  IC50: > 100 µM
[4]; Homo sapiens, 48 h
  IC50: > 100 µM
[4]; Homo sapiens, 72 h
  IC50: > 100 µM
[5]; Homo sapiens, HT-29, 24 h
  IC50: > 100 µM
[5]; Homo sapiens, HT-29, 48 h
  IC50: > 100 µM
[5]; Homo sapiens, HT-29, 72 h
  IC50: > 100 µM
